These results are taken from patent US20260365653A1, “IRREVERSIBLE MUTEGFR INHIBITORS” (Bayer Aktiengesellschaft, priority 2022, published 2026).

Test [1] concerns the target T1, mutEGFR (D770_N771insNPG, T790) (Homo sapiens, UniProt P00533, INS770NPG/T790M).
T1 construct: exact insNPG construct not described; in-house EGFR proteins were N-terminal GST fusions from baculovirus/insect cells (borders R669-A1210 given only for WT, insSVD, insASV)
The test can be described thus: mutEGFR (D770_N771insNPG, T790) kinase assay. It is filed as biochemical. Conditions: Table 2a, D770_N771insNPG. An excerpt:
The different EGFR proteins used in the biochemical kinase activity inhibition assays were generated inhouse by expression in insect cells using Baculo Virus system and subsequent purification as described in the following paragraphs.
The cDNAs encoding the various protein sequences from human EGFR human (P00533) were optimized for expression in eukaryotic cells and synthesized by the GeneArt Technology at Life Technologies.

Another test has as its system BA/F3 (insSVD) cells. Briefly: Ba/F3-EGFR-insSVD cell survival assay (Cell Titer-Glo). The class given is cell-based. Conditions: Mus musculus, BaF3, 48 h. The method in brief: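 Ba/F3 cells stably expressing retroviral EGFR-insSVD or insSVD T790M, grown without IL-3 on 10 ng/ml EGF, 4000 cells/well. Compound pinned in, 48 h at 37° C. Viability by CellTiter-Glo luminescence.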
(In general: Cellular ATP, detected with luciferase, serves as a proxy for viable cell number.)

For test [2], the target named is T2, mutEGFR (D770_N771insSVD) (Homo sapiens, UniProt P00533, DUP768-770).
T2 construct: GST-EGFR #3 (SVD between D770 and N771); made in house; host or cells: Sf9 insect cells (baculovirus)
T2 sequence (P00533 with tags, fused parts or gaps DUP768-770): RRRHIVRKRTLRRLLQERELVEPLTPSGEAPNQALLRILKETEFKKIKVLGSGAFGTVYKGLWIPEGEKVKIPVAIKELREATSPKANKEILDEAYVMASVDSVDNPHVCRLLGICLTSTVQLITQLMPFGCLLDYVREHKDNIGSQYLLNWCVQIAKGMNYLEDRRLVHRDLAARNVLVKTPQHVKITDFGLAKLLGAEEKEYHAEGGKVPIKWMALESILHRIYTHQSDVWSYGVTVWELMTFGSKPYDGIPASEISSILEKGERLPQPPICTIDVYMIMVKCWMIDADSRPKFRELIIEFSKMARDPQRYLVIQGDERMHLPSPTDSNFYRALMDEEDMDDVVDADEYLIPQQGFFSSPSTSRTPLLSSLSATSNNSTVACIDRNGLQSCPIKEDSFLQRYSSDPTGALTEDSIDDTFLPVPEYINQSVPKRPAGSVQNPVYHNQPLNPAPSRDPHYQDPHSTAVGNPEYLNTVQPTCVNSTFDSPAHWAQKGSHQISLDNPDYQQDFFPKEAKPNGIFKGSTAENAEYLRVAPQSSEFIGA
Briefly: Exon20-Mutant-EGFR (D770_N771insSVD) kinase assay (TR-FRET). It is filed as biochemical. Background: In TR-FRET formats the signal depends on donor and acceptor labels being close together.

Where [3] appears, read: Table 3a, cell survival, Cell Titer-Glo, with 10 ng/ml EGF, without IL-3.
The mark [4] stands for this setting: mutEGFR (D770_N771insSVD) kinase assay IC50, Table 2a, D770_N771insSVD, 2 mM ATP.

The term IC50 denotes the concentration at which inhibition is half-maximal. A high value points to a need for much substance.

T1 sequence (P00533 with tags, fused parts or gaps INS770NPG/T790M limits assumed): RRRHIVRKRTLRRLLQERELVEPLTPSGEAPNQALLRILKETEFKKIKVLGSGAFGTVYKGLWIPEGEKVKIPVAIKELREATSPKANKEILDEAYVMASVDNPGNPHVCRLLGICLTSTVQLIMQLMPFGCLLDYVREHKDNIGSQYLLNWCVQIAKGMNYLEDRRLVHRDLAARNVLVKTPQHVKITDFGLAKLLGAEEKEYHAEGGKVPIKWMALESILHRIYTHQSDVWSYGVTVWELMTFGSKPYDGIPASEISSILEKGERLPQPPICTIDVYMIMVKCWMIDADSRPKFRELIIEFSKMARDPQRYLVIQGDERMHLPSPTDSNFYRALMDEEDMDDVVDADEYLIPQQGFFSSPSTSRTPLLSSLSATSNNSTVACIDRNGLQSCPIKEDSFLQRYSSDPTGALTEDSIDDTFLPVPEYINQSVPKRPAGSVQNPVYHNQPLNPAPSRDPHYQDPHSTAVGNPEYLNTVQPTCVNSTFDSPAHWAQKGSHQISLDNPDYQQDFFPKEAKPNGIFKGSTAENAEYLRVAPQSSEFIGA

On to `C[C@H]1Cn2nc(-c3ccc(Cl)cc3)c(-c3ccncc3)c2CN1C(=O)/C=C/CN(C)C` [Example 245, (2E)-1-[(6S)-2-(4-chlorophenyl)-6-methyl-3-(pyridin-4-yl)-6,7-dihydropyrazolo[1,5-a]pyrazin-5(4H)-yl]-4-(dimethylamino)but-2-en-1-one], for which the figures for the IC50 (in test [1]; in the test with BA/F3 (insSVD) cells (setting [3]); in test [2] (setting [4])) were 0.262 nM, 11.9 nM and 0.113 nM, respectively.

Regarding `C=CC(=O)N1CCn2nc(-c3cccc(C#N)c3)c(-c3ccncc3)c2C1` [Example 141, 3-[5-(prop-2-enoyl)-3-(pyridin-4-yl)-4,5,6,7-tetrahydropyrazolo[1,5-a]pyrazin-2-yl]benzonitrile], the 50% inhibitory concentration (IC50) amounted to 19.7 nM in test [1], 177 nM in the test with BA/F3 (insSVD) cells (setting [3]) and 32.4 nM in test [2] (setting [4]).

Take `C=CC(=O)N1CCn2nc(-c3ccc(C(F)(F)F)cc3)c(-c3ccnc4[nH]cc(C)c34)c2C1C` (single isomer, unassigned; isomer 1) [Example 259, 1-(4-methyl-3-(3-methyl-1H-pyrrolo[2,3-b]pyridin-4-yl)-2-(4-(trifluoromethyl)phenyl)-6,7-dihydropyrazolo[1,5-a]pyrazin-5(4H)-yl) prop-2-en-1-one (isomer 1)]: the 50% inhibitory concentration (IC50) turned out to be 13300 nM in test [1], 296 nM with BA/F3 (insSVD) cells (setting [3]) and 683 nM in test [2] (setting [4]).

Turning to `C=CC(=O)N1CCn2nc(Nc3ccc(F)cc3)c(-c3ccncc3)c2C1` [Example 19, 1-[2-(4-fluoroanilino)-3-(pyridin-4-yl)-6,7-dihydropyrazolo[1,5-a]pyrazin-5(4H)-yl]prop-2-en-1-one], the IC50 in test [1] amounted to 210 nM; with BA/F3 (insSVD) cells (setting [3]) it was 823 nM; in the test with BA/F3 (insSVD) cells (Table 3b, Ba/F3 EGFR-insSVD) it was 823 nM; in test [2] (setting [4]), 25.9 nM; in test [2] (mutEGFR (D770_N771insSVD) kinase assay IC50, Table 2b (from US Priority Patent Application), mutEGFR D770_N771insSVD), 25.9 nM.

For the compound `CN(C)C/C=C/C(=O)N1CCn2nc(-c3ccc4nn[nH]c4c3)c(-c3ccncc3)c2C1` [Example 198, (2E)-1-[2-(1H-benzotriazol-6-yl)-3-(pyridin-4-yl)-6,7-dihydropyrazolo[1,5-a]pyrazin-5(4H)-yl]-4-(dimethylamino)but-2-en-1-one], the 50% inhibitory concentration (IC50) in test [1] is 1070 nM; in the test on BA/F3 (insSVD) cells (setting [3]) it was 6390 nM; in test [2] (setting [4]), 476 nM.

In the case of `C=C(F)C(=O)N1Cc2c(-c3ccncc3)c(-c3ccc(Cl)cc3F)nn2CC1C` (racemic) [Example 237, 1-[(RS)-2-(4-chloro-2-fluorophenyl)-6-methyl-3-(pyridin-4-yl)-6,7-dihydropyrazolo[1,5-a]pyrazin-5(4H)-yl]-2-fluoroprop-2-en-1-one], the IC50 in test [1] worked out at 9.96 nM; with BA/F3 (insSVD) cells (setting [3]) it was 126 nM; in test [2] (setting [4]) it was 2.94 nM.

Turning to `Cc1c[nH]c2nccc(-c3c(-c4ccc(F)cc4)nn4c3CN(C(=O)/C=C/CN(C)C)[C@H](C)C4)c12` [Example 269, (2E)-4-(dimethylamino)-1-[(6R)-2-(4-fluorophenyl)-6-methyl-3-(3-methyl-1H-pyrrolo[2,3-b]pyridin-4-yl)-6,7-dihydropyrazolo[1,5-a]pyrazin-5(4H)-yl]but-2-en-1-one], the IC50 in test [1] stood at 38.2 nM; with BA/F3 (insSVD) cells (setting [3]), 128 nM; in test [2] (setting [4]), 138 nM.

Take `CN(C)C/C=C/C(=O)N1Cc2c(-c3ccncc3)c(-c3ccc(F)cc3)nn2C(CO)C1` (racemic) [Example 201, rac-(R,E)-4-(dimethylamino)-1-(2-(4-fluorophenyl)-7-(hydroxymethyl)-3-(pyridin-4-yl)-6,7-dihydropyrazolo[1,5-a]pyrazin-5(4H)-yl) but-2-en-1-one]: the results for the IC50 (in test [1]; in the test with BA/F3 (insSVD) cells (setting [3]); in test [2] (setting [4])) were 3.42 nM, 423 nM and 1.67 nM, respectively.

`O=C(/C=C/CN1CC(F)C1)N1CCn2nc(-c3ccc(Cl)cc3)c(-c3ccncc3)c2C1` [Example 172, (2E)-1-[2-(4-chlorophenyl)-3-(pyridin-4-yl)-6,7-dihydropyrazolo[1,5-a]pyrazin-5(4H)-yl]-4-(3-fluoroazetidin-1-yl) but-2-en-1-one]: the half-maximal inhibitory concentration (IC50) in test [1] came to 1.21 nM; with BA/F3 (insSVD) cells (setting [3]) it was 43.2 nM; in test [2] (setting [4]) it was 0.203 nM.

In the case of `C[C@@H]1Cn2nc(-c3cccc(C#N)c3)c(-c3ccncc3)c2CN1C(=O)/C=C/CN(C)C` [Example 100, 3-[(6R)-5-[(2E)-4-(dimethylamino)but-2-enoyl]-6-methyl-3-(pyridin-4-yl)-4,5,6,7-tetrahydropyrazolo[1,5-a]pyrazin-2-yl]benzonitrile], the concentration for half-maximal inhibition (IC50) in test [1] came to 3.57 nM; with BA/F3 (insSVD) cells (setting [3]), 420 nM; in test [2] (setting [4]), 19.6 nM.

Take `C=CC(=O)N1CCn2nc(-c3ccccc3F)c(-c3ccncc3)c2C1` [Example 136, 1-[2-(2-fluorophenyl)-3-(pyridin-4-yl)-6,7-dihydropyrazolo[1,5-a]pyrazin-5(4H)-yl]prop-2-en-1-one]: the concentration for half-maximal inhibition (IC50) was 4.74 nM in test [1], 68.3 nM in the test on BA/F3 (insSVD) cells (setting [3]) and 1.1 nM in test [2] (setting [4]).

On to `C=CC(=O)N1Cc2c(-c3ccncc3)c(-c3ccc(F)cc3)nn2C(C(N)=O)C1` (racemic) [Example 204, (7RS)-5-acryloyl-2-(4-fluorophenyl)-3-(pyridin-4-yl)-4,5,6,7-tetrahydropyrazolo[1,5-a]pyrazine-7-carboxamide], for which the IC50 came to 17.2 nM in test [1], 134 nM in the test with BA/F3 (insSVD) cells (setting [3]) and 4.61 nM in test [2] (setting [4]).

On to `C=CC(=O)N1CCn2nc(-c3cccc(Cl)c3)c(-c3ccnc4[nH]cc(C)c34)c2C1` [Example 177, 1-[2-(3-chlorophenyl)-3-(3-methyl-1H-pyrrolo[2,3-b]pyridin-4-yl)-6,7-dihydropyrazolo[1,5-a]pyrazin-5(4H)-yl]prop-2-en-1-one], for which the figures for the IC50 (in test [1]; with BA/F3 (insSVD) cells (setting [3]); in test [2] (setting [4])) were 17.8 nM, 58.7 nM and 43.2 nM, respectively.

Take `C=CC(=O)N1CCn2nc(-c3ccc(Cl)cc3Cl)c(-c3ccncc3)c2C1` [Example 115, 1-[2-(2,4-dichlorophenyl)-3-(pyridin-4-yl)-6,7-dihydropyrazolo[1,5-a]pyrazin-5(4H)-yl]prop-2-en-1-one]: the values for the half-maximal inhibitory concentration (IC50) (in test [1]; in the test on BA/F3 (insSVD) cells (setting [3]); in test [2] (setting [4])) were 0.949 nM, 42.2 nM and 0.22 nM, respectively.

Consider `C=CC(=O)N1CCn2nc(Nc3ccccc3)c(-c3ccncc3)c2C1` [Example 272, 1-[2-anilino-3-(pyridin-4-yl)-6,7-dihydropyrazolo[1,5-a]pyrazin-5(4H)-yl]prop-2-en-1-one], for which the half-maximal inhibitory concentration (IC50) in test [1] is 10.4 nM; in the test with BA/F3 (insSVD) cells (setting [3]), 87.8 nM; in test [2] (setting [4]), 2.35 nM.

For `O=C(/C=C/CN1CCCC1)N1CCn2nc(-c3ccc(Cl)cc3)c(-c3ccncc3)c2C1` [Example 171, (2E)-1-[2-(4-chlorophenyl)-3-(pyridin-4-yl)-6,7-dihydropyrazolo[1,5-a]pyrazin-5(4H)-yl]-4-(pyrrolidin-1-yl)but-2-en-1-one], the IC50 was 0.406 nM in test [1], 33.7 nM in the test with BA/F3 (insSVD) cells (setting [3]) and 0.136 nM in test [2] (setting [4]).

`C=CC(=O)N1CCn2nc(-c3ccc(F)c(C#N)c3)c(-c3ccncc3)c2C1` [Example 119, 2-fluoro-5-[5-(prop-2-enoyl)-3-(pyridin-4-yl)-4,5,6,7-tetrahydropyrazolo[1,5-a]pyrazin-2-yl]benzonitrile]: the values for the IC50 (in test [1]; with BA/F3 (insSVD) cells (setting [3]); in test [2] (setting [4])) were 7.03 nM, 153 nM and 23.2 nM, respectively.

Consider `C=CC(=O)N1CCn2nc(-c3cccc(C)c3)c(-c3ccncc3)c2C1` [Example 139, 1-[2-(3-methylphenyl)-3-(pyridin-4-yl)-6,7-dihydropyrazolo[1,5-a]pyrazin-5(4H)-yl]prop-2-en-1-one], for which the IC50 is 1.38 nM in test [1], 25.9 nM in the test on BA/F3 (insSVD) cells (setting [3]) and 0.841 nM in test [2] (setting [4]).
